Assay results taken from the supplement of paper PMC10307832.

Legend:
Test in all cases: relative viability (nuclei count vs DMSO), 5 days (fraction); higher = more cells survive
[1] = test system: NCI-H1915
Method in brief: (§1)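 Lung cancer cell lines were seeded in 1536-well plates and dosed by pin tool the next day, with either a single drug or a fixed anchor-drug dose combined with five library-drug doses (not always all listed) spaced in √10 steps. Five days later, one step fixed the cells and stained their nuclei (final 0.05% Triton X-100, 1% formaldehyde, 1 ug/ml Hoechst), and nuclei were counted on 4× images. Relative viability is the nuclei count in treated wells divided by the count in vehicle wells, and each value is the median of duplicate plates.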

[2] = test system: NCI-H2023
Method in brief: as §1

[3] = test system: NCI-H2347
Method in brief: as §1

[4] = test system: NCI-H2009
Method in brief: as §1

[5] = test system: LXF-289
Method in brief: as §1

[6] = test system: EMC-BAC-2
Method in brief: as §1

[7] = test system: LCLC-97TM1
Method in brief: as §1

[8] = test system: EPLC-272H
Method in brief: as §1

[9] = test system: HOP-62
Method in brief: as §1

[10] = test system: PC-14
Method in brief: as §1

[11] = test system: SW 1573
Method in brief: as §1

[12] = test system: NCI-H1563
Method in brief: as §1

[13] = test system: NCI-H1993
Method in brief: as §1

[14] = test system: NCI-H2126
Method in brief: as §1

[15] = test system: NCI-H2342
Method in brief: as §1

[16] = test system: SK-LU-1
Method in brief: as §1

[17] = test system: NCI-H1650
Method in brief: as §1

[18] = test system: NCI-H727
Method in brief: as §1

[19] = test system: NCI-H322M
Method in brief: as §1

[20] = test system: NCI-H661
Method in brief: as §1

[21] = test system: NCI-H647
Method in brief: as §1

[22] = test system: H3255
Method in brief: as §1

[23] = test system: NCI-H2085
Method in brief: as §1

CC1(C)CCC(c2ccc(Cl)cc2)=C(CN2CCN(c3ccc(C(=O)NS(=O)(=O)c4ccc(N[C@H](CCN5CCOCC5)CSc5ccccc5)c(S(=O)(=O)C(F)(F)F)c4)cc3)CC2)C1 [Navitoclax] + CCNC(=O)c1noc(-c2cc(C(C)C)c(O)cc2O)c1-c1ccc(CN2CCOCC2)cc1 [Luminespib] (partner 0.01 µM)
relative viability ([1]; first compound 0.005 µM): 0.749 | relative viability ([1]; first compound 0.01581 µM): 0.778 | relative viability ([1]; first compound 0.05 µM): 0.793 | relative viability ([1]; first compound 0.1581 µM): 0.746 | relative viability ([1]; first compound 0.5 µM): 0.829 | relative viability ([2]; first compound 0.005 µM): 0.782 | relative viability ([2]; first compound 0.01581 µM): 0.921 | relative viability ([2]; first compound 0.05 µM): 0.83 | relative viability ([2]; first compound 0.1581 µM): 0.568 | relative viability ([2]; first compound 0.5 µM): 0.594 | relative viability ([3]; first compound 0.005 µM): 0.467 | relative viability ([3]; first compound 0.01581 µM): 0.62 | relative viability ([3]; first compound 0.1581 µM): 0.372 | relative viability ([3]; first compound 0.5 µM): 0.312 | relative viability ([4]; first compound 0.005 µM): 1.04 | relative viability ([4]; first compound 0.01581 µM): 1.1 | relative viability ([4]; first compound 0.05 µM): 1.02 | relative viability ([4]; first compound 0.1581 µM): 1.07 | relative viability ([4]; first compound 0.5 µM): 1.04 | relative viability ([5]; first compound 0.005 µM): 0.631 | relative viability ([5]; first compound 0.01581 µM): 0.754 | relative viability ([5]; first compound 0.05 µM): 0.725 | relative viability ([5]; first compound 0.1581 µM): 0.584 | relative viability ([5]; first compound 0.5 µM): 0.636 | relative viability ([6]; first compound 0.005 µM): 1.09 | relative viability ([6]; first compound 0.01581 µM): 1.24 | relative viability ([6]; first compound 0.05 µM): 1.08 | relative viability ([6]; first compound 0.1581 µM): 1.13 | relative viability ([6]; first compound 0.5 µM): 1.12 | relative viability ([7]; first compound 0.005 µM): 0.74 | relative viability ([7]; first compound 0.01581 µM): 0.8 | relative viability ([7]; first compound 0.05 µM): 0.733 | relative viability ([7]; first compound 0.1581 µM): 0.779 | relative viability ([7]; first compound 0.5 µM): 0.857 | relative viability ([8]; first compound 0.005 µM): 0.391 | relative viability ([8]; first compound 0.05 µM): 1 | relative viability ([8]; first compound 0.1581 µM): 0.647 | relative viability ([8]; first compound 0.5 µM): 0.133 | relative viability ([9]; first compound 0.005 µM): 0.913 | relative viability ([9]; first compound 0.01581 µM): 0.937 | relative viability ([9]; first compound 0.05 µM): 0.895 | relative viability ([9]; first compound 0.1581 µM): 0.894 | relative viability ([9]; first compound 0.5 µM): 0.993 | relative viability ([10]; first compound 0.005 µM): 0.223 | relative viability ([10]; first compound 0.01581 µM): 0.154 | relative viability ([10]; first compound 0.05 µM): 0.23 | relative viability ([10]; first compound 0.1581 µM): 0.313 | relative viability ([10]; first compound 0.5 µM): 0.146 | relative viability ([11]; first compound 0.005 µM): 0.145 | relative viability ([11]; first compound 0.01581 µM): 0.213 | relative viability ([11]; first compound 0.05 µM): 0.429 | relative viability ([11]; first compound 0.1581 µM): 0.212 | relative viability ([11]; first compound 0.5 µM): 0.206 | relative viability ([12]; first compound 0.005 µM): 0.53 | relative viability ([12]; first compound 0.01581 µM): 0.507 | relative viability ([12]; first compound 0.05 µM): 0.485 | relative viability ([12]; first compound 0.1581 µM): 0.557 | relative viability ([12]; first compound 0.5 µM): 0.475 | relative viability ([13]; first compound 0.005 µM): 0.813 | relative viability ([13]; first compound 0.01581 µM): 0.891 | relative viability ([13]; first compound 0.05 µM): 0.824 | relative viability ([13]; first compound 0.1581 µM): 0.913 | relative viability ([13]; first compound 0.5 µM): 0.803 | relative viability ([14]; first compound 0.005 µM): 0.906 | relative viability ([14]; first compound 0.01581 µM): 0.952 | relative viability ([14]; first compound 0.05 µM): 0.923 | relative viability ([14]; first compound 0.1581 µM): 0.779 | relative viability ([14]; first compound 0.5 µM): 0.844 | relative viability ([15]; first compound 0.005 µM): 0.683 | relative viability ([15]; first compound 0.01581 µM): 0.747 | relative viability ([15]; first compound 0.05 µM): 0.476 | relative viability ([15]; first compound 0.1581 µM): 0.723 | relative viability ([15]; first compound 0.5 µM): 0.683 | relative viability ([16]; first compound 0.005 µM): 0.205 | relative viability ([16]; first compound 0.01581 µM): 0.179 | relative viability ([16]; first compound 0.05 µM): 0.199 | relative viability ([16]; first compound 0.1581 µM): 0.199 | relative viability ([16]; first compound 0.5 µM): 0.201 | relative viability ([17]; first compound 0.005 µM): 0.214 | relative viability ([17]; first compound 0.01581 µM): 0.21 | relative viability ([17]; first compound 0.05 µM): 0.167 | relative viability ([17]; first compound 0.1581 µM): 0.206 | relative viability ([17]; first compound 0.5 µM): 0.192 | relative viability ([18]; first compound 0.01581 µM): 0.347 | relative viability ([18]; first compound 0.1581 µM): 0.275 | relative viability ([18]; first compound 0.5 µM): 0.28 | relative viability ([19]; first compound 0.005 µM): 0.81 | relative viability ([19]; first compound 0.01581 µM): 1.12 | relative viability ([19]; first compound 0.05 µM): 1.07 | relative viability ([19]; first compound 0.1581 µM): 0.908 | relative viability ([19]; first compound 0.5 µM): 0.908 | relative viability ([20]; first compound 0.005 µM): 0.94 | relative viability ([20]; first compound 0.01581 µM): 0.853 | relative viability ([20]; first compound 0.05 µM): 0.971 | relative viability ([20]; first compound 0.1581 µM): 0.775 | relative viability ([20]; first compound 0.5 µM): 0.884 | relative viability ([21]; first compound 0.005 µM): 0.271 | relative viability ([21]; first compound 0.01581 µM): 0.215 | relative viability ([21]; first compound 0.05 µM): 0.17 | relative viability ([21]; first compound 0.1581 µM): 0.206 | relative viability ([21]; first compound 0.5 µM): 0.133 | relative viability ([22]; first compound 0.005 µM): 0.874 | relative viability ([22]; first compound 0.01581 µM): 0.877 | relative viability ([22]; first compound 0.05 µM): 0.834 | relative viability ([22]; first compound 0.1581 µM): 0.869 | relative viability ([22]; first compound 0.5 µM): 0.741 | relative viability ([23]; first compound 0.005 µM): 0.488 | relative viability ([23]; first compound 0.01581 µM): 0.538 | relative viability ([23]; first compound 0.05 µM): 0.484 | relative viability ([23]; first compound 0.1581 µM): 0.46 | relative viability ([23]; first compound 0.5 µM): 0.383
